The values below are quoted from earlier work in article PMC11369081, “Molecular mechanism of prolactin-releasing peptide recognition and signaling via its G protein-coupled receptor” (Cell Discovery, 2024).

Ends that are not written are not given here.

The subject of the data set is PrRPR. The settings on record: cited from earlier work. As for the experimental part:
In both structures, the intramolecular motif of W8, Y9, and R12 within PrRP20 stabilizes its α-helical structure (Fig. 2h). […] Th ...

On to “PrRP20 analog (W8–F20): PrRP20 analog (W8–F20) (WYASRGIRPVGRF; ends and bridges not checked; UniProt P81277 41-53, looked up, fragment)”, for which the activity in vitro result (structure-activity relationship studies, ref [21]) is reported as “did not show reduced activity in vitro”.
On to “C-terminal heptapeptide (I14–F20): shortest effective analog is a C-terminal heptapeptide (I14–F20) (IRPVGRF; ends and bridges not checked; UniProt P81277 47-53, looked up, fragment)”, for which the “affinity of shortest effective analog” value (deletion analysis of PrRP20 N-terminal region, vs PrRP20, ref [9]) is “substantially lower affinity”.
